In BindingDB's records for doi:10.1158/0008-5472.can-03-2847 (The University of Birmingham, 2004) one finds Ki data, which are given here for 1 compound.

One may read the Ki as the dissociation constant of the complex between target and ligand, obtained from inhibition or displacement. Read a low Ki as a stronger hold on the target.

The target of assay [1] is T1, Aldo-keto reductase family 1 member C3 (Homo sapiens, UniProt P42330).
T1 sequence (P42330 whole entry): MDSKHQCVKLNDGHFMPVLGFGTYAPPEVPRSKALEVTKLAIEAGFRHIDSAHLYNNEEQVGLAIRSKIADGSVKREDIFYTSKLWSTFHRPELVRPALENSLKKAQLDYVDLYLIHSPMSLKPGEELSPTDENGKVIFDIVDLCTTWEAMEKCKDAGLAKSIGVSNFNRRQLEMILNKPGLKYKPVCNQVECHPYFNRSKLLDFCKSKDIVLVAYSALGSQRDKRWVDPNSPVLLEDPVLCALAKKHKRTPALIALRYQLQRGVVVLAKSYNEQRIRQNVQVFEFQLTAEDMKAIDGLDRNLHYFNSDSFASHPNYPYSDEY
Put plainly: 3alpha-Androstanediol Oxidation Inhibition Assay. Particulars: pH 7; 30 °C.
Protocol: A fluorescence assay was used to determine the kinetic constants for the oxidation of 3alpha-androstanediol. The fluorescence emission of NADPH at 450 nm (5-nm slit width) with excitation at 340 nm (15-nm slit width) was monitored. A standard curve was constructed by monitoring fluorescence changes with incremental additions of NADPH. […] The type of inhibition and the inhibition constants were calculated using the Leonora program. All reactions were initiated by the addition of enzyme.

Assay [2] has as its target T1, Aldo-keto reductase family 1 member C3. Put plainly: Androsterone Reduction Inhibition Assay. To be noted: pH 7; 30 °C.
Protocol: Enzyme activity was measured in the reductive direction against varying concentrations of androsterone. Initial velocities were measured by observing the rate of change of absorbance of pyridine nucleotide at 340 nm. Calculation of kcat and Km values used the Leonora program, yielding estimates of the kinetic constants. […] The type of inhibition and the inhibition constants were calculated using the Leonora program. All reactions were initiated by the addition of enzyme.

Take `O=C(O)c1ccccc1Nc1cccc(C(F)(F)F)c1` [2-{[3-(trifluoromethyl)phenyl]amino}benzoic acid]: the results for the inhibition constant (Ki) in assay [1] and in assay [2] were 0.14 µM and 3.1 µM, respectively.
